Tests used:
[1] = molecular target: Beta-1 adrenergic receptor (Homo sapiens, UniProt P08588); assay: Binding affinity against Beta-1 adrenergic receptor
[2] = molecular target: Serotonin 3 (5-HT3) receptor (Rattus norvegicus) (UniProt P35563+Q9JJ16); assay: Tested for % decrease in heart rate relative to pre-dose control against 2-methyl-5-HT induced bradycardia (von Bezold-Jarisch (B-J) reflex) in anesthetized rats; type: functional; parameters: scale not given: the % may be the effect or the level left
[3] = molecular target: T1, Alpha-2A adrenergic receptor (Homo sapiens, UniProt P08913); assay: Binding affinity against Alpha-2A adrenergic receptor
T1 sequence (P08913 whole entry): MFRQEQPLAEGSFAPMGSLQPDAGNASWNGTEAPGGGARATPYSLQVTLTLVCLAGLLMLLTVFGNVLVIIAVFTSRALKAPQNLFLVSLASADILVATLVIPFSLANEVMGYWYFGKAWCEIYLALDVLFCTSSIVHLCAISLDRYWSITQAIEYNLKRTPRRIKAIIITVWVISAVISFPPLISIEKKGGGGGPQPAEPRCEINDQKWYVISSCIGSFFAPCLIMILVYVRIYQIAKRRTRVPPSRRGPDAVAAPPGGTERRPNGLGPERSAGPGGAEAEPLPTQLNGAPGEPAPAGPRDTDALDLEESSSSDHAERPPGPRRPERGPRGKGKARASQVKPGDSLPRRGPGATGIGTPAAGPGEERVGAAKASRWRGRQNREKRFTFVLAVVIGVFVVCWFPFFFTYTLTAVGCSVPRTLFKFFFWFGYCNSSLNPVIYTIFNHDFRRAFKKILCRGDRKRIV

[4] = molecular target: T2, 5-hydroxytryptamine receptor 2C (Homo sapiens, UniProt P28335); assay: Binding affinity against 5-hydroxytryptamine 2C receptor
T2 sequence (P28335 whole entry): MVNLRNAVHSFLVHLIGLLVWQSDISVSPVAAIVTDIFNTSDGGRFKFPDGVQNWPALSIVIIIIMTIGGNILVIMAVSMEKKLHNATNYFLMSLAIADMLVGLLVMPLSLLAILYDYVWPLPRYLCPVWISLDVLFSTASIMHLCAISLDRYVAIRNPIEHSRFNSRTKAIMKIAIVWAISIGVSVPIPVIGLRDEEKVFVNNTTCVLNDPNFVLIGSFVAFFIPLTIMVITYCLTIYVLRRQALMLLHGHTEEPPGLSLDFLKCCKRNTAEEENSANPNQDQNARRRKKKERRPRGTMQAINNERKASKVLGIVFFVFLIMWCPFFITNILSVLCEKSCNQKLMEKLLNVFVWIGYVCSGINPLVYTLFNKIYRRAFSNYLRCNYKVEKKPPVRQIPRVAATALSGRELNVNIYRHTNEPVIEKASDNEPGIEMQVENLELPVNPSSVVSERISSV

[5] = molecular target: T3, 5-hydroxytryptamine receptor 1A (Mus musculus, UniProt Q64264); assay: Binding affinity against 5-hydroxytryptamine 1A receptor
T3 sequence (Q64264 whole entry): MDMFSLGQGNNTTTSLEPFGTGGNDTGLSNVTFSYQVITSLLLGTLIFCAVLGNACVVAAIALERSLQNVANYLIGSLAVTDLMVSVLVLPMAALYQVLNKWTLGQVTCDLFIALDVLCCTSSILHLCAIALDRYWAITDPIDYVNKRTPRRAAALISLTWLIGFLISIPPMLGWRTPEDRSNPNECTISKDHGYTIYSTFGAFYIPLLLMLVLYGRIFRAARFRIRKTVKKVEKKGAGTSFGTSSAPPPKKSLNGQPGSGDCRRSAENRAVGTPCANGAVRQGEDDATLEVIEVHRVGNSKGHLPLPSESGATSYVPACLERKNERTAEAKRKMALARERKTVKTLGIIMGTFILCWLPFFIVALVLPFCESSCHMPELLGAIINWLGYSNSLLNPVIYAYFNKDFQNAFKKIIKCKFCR

[6] = molecular target: T4, Serotonin 3 (5-HT3) receptor (Rattus norvegicus, UniProt P35563+Q9JJ16); assay: Binding affinity against 5-Hydroxytryptamine 3 receptor; type: protein-complex assay
T4 sequence (P35563 whole entry): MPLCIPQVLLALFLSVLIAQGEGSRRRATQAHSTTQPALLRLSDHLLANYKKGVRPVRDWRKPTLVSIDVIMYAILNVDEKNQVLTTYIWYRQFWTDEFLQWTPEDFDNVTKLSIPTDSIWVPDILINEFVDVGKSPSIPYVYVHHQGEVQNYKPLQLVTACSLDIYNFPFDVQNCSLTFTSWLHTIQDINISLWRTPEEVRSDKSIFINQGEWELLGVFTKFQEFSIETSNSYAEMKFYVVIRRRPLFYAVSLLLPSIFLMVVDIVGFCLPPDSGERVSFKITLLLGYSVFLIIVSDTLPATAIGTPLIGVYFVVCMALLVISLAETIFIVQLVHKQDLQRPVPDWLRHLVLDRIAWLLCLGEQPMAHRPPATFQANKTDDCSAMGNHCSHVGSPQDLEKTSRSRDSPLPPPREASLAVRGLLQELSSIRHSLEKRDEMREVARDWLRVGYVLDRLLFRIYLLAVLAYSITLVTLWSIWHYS
T4 sequence (Q9JJ16 whole entry): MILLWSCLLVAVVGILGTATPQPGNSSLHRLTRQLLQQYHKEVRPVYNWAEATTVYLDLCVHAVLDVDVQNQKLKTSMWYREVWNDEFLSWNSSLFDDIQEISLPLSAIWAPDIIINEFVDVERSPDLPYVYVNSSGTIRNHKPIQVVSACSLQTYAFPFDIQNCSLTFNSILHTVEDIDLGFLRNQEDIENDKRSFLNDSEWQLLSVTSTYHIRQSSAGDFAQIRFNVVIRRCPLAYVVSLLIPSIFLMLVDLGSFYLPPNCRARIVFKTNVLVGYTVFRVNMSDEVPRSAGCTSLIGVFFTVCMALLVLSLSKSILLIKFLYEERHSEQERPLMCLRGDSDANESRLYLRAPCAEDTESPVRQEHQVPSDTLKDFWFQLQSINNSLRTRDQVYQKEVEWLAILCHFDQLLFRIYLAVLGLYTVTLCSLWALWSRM

[7] = molecular target: T5, Muscarinic acetylcholine receptor M4 (Homo sapiens, UniProt P08173); assay: Binding affinity against Muscarinic acetylcholine receptor M4
T5 sequence (P08173 whole entry): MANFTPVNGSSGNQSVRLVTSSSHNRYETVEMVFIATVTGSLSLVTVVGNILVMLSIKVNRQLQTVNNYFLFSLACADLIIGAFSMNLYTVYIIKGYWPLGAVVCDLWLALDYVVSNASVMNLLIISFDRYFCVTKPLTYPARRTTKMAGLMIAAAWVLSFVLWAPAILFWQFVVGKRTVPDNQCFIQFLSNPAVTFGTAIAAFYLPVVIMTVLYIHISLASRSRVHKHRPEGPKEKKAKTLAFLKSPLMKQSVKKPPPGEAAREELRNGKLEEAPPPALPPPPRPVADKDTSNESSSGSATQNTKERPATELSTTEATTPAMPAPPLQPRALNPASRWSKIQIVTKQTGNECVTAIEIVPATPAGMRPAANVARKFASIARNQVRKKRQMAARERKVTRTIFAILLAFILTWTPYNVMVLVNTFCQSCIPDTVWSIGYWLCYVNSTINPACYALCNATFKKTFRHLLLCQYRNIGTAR

[8] = organism: Rattus norvegicus; assay: Tested for maximum response in depolarization of isolated rat vagus nerve measured at dose 1 uM; type: functional

Chain of Beta-1 adrenergic receptor (P08588 whole entry): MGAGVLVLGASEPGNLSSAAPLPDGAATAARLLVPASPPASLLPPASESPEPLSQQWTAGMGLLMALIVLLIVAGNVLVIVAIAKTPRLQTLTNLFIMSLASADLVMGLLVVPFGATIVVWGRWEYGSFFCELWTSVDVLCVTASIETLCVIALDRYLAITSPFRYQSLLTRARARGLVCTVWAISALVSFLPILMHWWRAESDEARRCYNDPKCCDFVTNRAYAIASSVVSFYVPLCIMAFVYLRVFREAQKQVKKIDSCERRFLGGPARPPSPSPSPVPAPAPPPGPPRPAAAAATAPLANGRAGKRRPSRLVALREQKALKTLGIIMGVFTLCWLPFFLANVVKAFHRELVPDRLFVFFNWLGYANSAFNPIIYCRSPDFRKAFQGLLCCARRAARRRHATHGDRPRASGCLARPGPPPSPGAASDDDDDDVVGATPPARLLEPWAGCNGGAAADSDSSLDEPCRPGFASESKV

Row | SMILES | Ki [1] [µM] | Control [2] [%] | Ki [3] [µM] | Ki [4] [µM] | Ki [5] [µM] | Ki [6] [µM] | Ki [7] [µM] | Max response [8] [uV]
1 | Cn1cc(C(=O)C(=O)N[C@@H]2CN3CCC2CC3)c2ccccc21 | > 100 | 33 | 31.6 | 12.6 | > 100 | 0.0126 | – | –
2 | Cn1cc(C(=O)C(=O)N[C@H]2CN3CCC2CC3)c2ccccc21 | > 10 | 24 | 7.94 | 15.8 | > 100 | 0.000251 | 25.1 | 140
